# Experimental data from patent publication US20190315823A1, “SMALL CATIONIC ANTI-BIOFILM AND IDR PEPTIDES” (priority 2013, published 2019).
# Ends that are not written are not given here.
# Tested on: methicillin resistant Staphylococcus aureus (MRSA) biofilm
# Test: not given
# Conditions: approximate peptide concentration […] (around 3 μg/ml); compared to untreated samples
# Procedure, shortened: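 Static biofilm assay: 1/100 dilutions of overnight cultures grown in BM2 medium (pH 7, glucose, Casamino Acids) or Luria Broth with peptide added at time zero. After 22–46 h, adherent biofilm was stained with crystal violet and read at 595 nm. Some peptides were also tested on K. pneumoniae under flow in a Bioflux system.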
row,Substance,% Biofilm inhibition
1,1018-V11: single substituted 1018 peptide (VRLIVAVRIWVR-NH2) [Peptide 1018-V11],29%
2,1002-V8: single substituted 1002 peptide (VQRWLIVVRIRK-NH2) [Peptide 1002-V8],56%
3,HH2-K10: single substituted HH2 peptide (VQLRIRVAVKRA-NH2),68%
4,HH2-L7: single substituted HH2 peptide (VQLRIRLAVIRA-NH2),68%
5,1018-I8: single substituted 1018 peptide (VRLIVAVIIWRR-NH2) [Peptide 1018-I8],39%
6,HH2-V12: single substituted HH2 peptide (VQLRIRVAVIRV-NH2),65%
7,1018-L9: single substituted 1018 peptide (VRLIVAVRLWRR-NH2) [Peptide 1018-L9],52%
8,HH2-W9: single substituted HH2 peptide (VQLRIRVAWIRA-NH2),75%
9,1018-A1: single substituted 1018 peptide (ARLIVAVRIWRR-NH2) [Peptide 1018-A1],51%
10,1002-A7: single substituted 1002 peptide (VQRWLIAWRIRK-NH2) [Peptide 1002-A7],58%
11,1018-L10: single substituted 1018 peptide (VRLIVAVRILRR-NH2) [Peptide 1018-L10],38%
12,1018-W11: single substituted 1018 peptide (VRLIVAVRIWWR-NH2) [Peptide 1018-W11],53%

# Tested on: human peripheral blood mononuclear cells (MCP-1)
# Test: SPOT-synthesized derivative screen: production of chemokine MCP-1
# Assay type: cell-based
# Conditions: Table 12; No LPS; human PBMC, peptide at ~18-24 μM
# Procedure, shortened: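 PBMC from heparinized healthy-donor venous blood, Ficoll-separated, cultured at 0.75 to 1×10^6 cells/ml, 37 °C, 5% CO2, under the treatment regimens. MCP-1 in cell-free supernatants measured by capture ELISA.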
row,Substance,Fold increase in MCP1 cf. untreated cells
1,1018-V11: single substituted 1018 peptide (VRLIVAVRIWVR-NH2) [Peptide 1018-V11],1.0
2,1002-V8: single substituted 1002 peptide (VQRWLIVVRIRK-NH2) [Peptide 1002-V8],7.1
3,HH2-K10: single substituted HH2 peptide (VQLRIRVAVKRA-NH2),5.7
4,HH2-L7: single substituted HH2 peptide (VQLRIRLAVIRA-NH2),19
5,1018-I8: single substituted 1018 peptide (VRLIVAVIIWRR-NH2) [Peptide 1018-I8],1.0
6,HH2-V12: single substituted HH2 peptide (VQLRIRVAVIRV-NH2),33
7,1018-L9: single substituted 1018 peptide (VRLIVAVRLWRR-NH2) [Peptide 1018-L9],1.4
8,HH2-W9: single substituted HH2 peptide (VQLRIRVAWIRA-NH2),31
9,1018-A1: single substituted 1018 peptide (ARLIVAVRIWRR-NH2) [Peptide 1018-A1],1.9
10,1002-A7: single substituted 1002 peptide (VQRWLIAWRIRK-NH2) [Peptide 1002-A7],0.9
11,1018-L10: single substituted 1018 peptide (VRLIVAVRILRR-NH2) [Peptide 1018-L10],0.7
12,1018-W11: single substituted 1018 peptide (VRLIVAVRIWWR-NH2) [Peptide 1018-W11],0.8

# Same assay, conditions: Table 12; No LPS; human PBMC, peptide at ~18-24 μM; background subtracted 139 (HH2 derivatives), 170 (1018 derivatives), 242 (1002 and hybrid peptides) pg/ml
row,Substance,MCP1
1,1018-V11: single substituted 1018 peptide (VRLIVAVRIWVR-NH2) [Peptide 1018-V11],2 pg/mL
2,1002-V8: single substituted 1002 peptide (VQRWLIVVRIRK-NH2) [Peptide 1002-V8],1468.2 pg/mL
3,HH2-K10: single substituted HH2 peptide (VQLRIRVAVKRA-NH2),797 pg/mL
4,HH2-L7: single substituted HH2 peptide (VQLRIRLAVIRA-NH2),3138 pg/mL
5,1018-I8: single substituted 1018 peptide (VRLIVAVIIWRR-NH2) [Peptide 1018-I8],2 pg/mL
6,HH2-V12: single substituted HH2 peptide (VQLRIRVAVIRV-NH2),5492 pg/mL
7,1018-L9: single substituted 1018 peptide (VRLIVAVRLWRR-NH2) [Peptide 1018-L9],66 pg/mL
8,HH2-W9: single substituted HH2 peptide (VQLRIRVAWIRA-NH2),4995 pg/mL
9,1018-A1: single substituted 1018 peptide (ARLIVAVRIWRR-NH2) [Peptide 1018-A1],161 pg/mL
10,1002-A7: single substituted 1002 peptide (VQRWLIAWRIRK-NH2) [Peptide 1002-A7],-36.2 pg/mL
11,1018-L10: single substituted 1018 peptide (VRLIVAVRILRR-NH2) [Peptide 1018-L10],-60 pg/mL
12,1018-W11: single substituted 1018 peptide (VRLIVAVRIWWR-NH2) [Peptide 1018-W11],-28 pg/mL

# Tested on: LPS-stimulated human peripheral blood mononuclear cells (IL1-β)
# Test: not given
# Assay type: cell-based
# Conditions: Table 12; cells stimulated with 10 ng/ml LPS
row,Substance,Fold change in IL1β relative to no peptide LPS stimulated cells
1,1018-V11: single substituted 1018 peptide (VRLIVAVRIWVR-NH2) [Peptide 1018-V11],0.94
2,1002-V8: single substituted 1002 peptide (VQRWLIVVRIRK-NH2) [Peptide 1002-V8],0.08
3,HH2-K10: single substituted HH2 peptide (VQLRIRVAVKRA-NH2),1.43
4,HH2-L7: single substituted HH2 peptide (VQLRIRLAVIRA-NH2),1.05
5,1018-I8: single substituted 1018 peptide (VRLIVAVIIWRR-NH2) [Peptide 1018-I8],0.86
6,HH2-V12: single substituted HH2 peptide (VQLRIRVAVIRV-NH2),0.85
7,1018-L9: single substituted 1018 peptide (VRLIVAVRLWRR-NH2) [Peptide 1018-L9],0.13
8,HH2-W9: single substituted HH2 peptide (VQLRIRVAWIRA-NH2),0.80
9,1018-A1: single substituted 1018 peptide (ARLIVAVRIWRR-NH2) [Peptide 1018-A1],0.13
10,1002-A7: single substituted 1002 peptide (VQRWLIAWRIRK-NH2) [Peptide 1002-A7],0.05
11,1018-L10: single substituted 1018 peptide (VRLIVAVRILRR-NH2) [Peptide 1018-L10],0.10
12,1018-W11: single substituted 1018 peptide (VRLIVAVRIWWR-NH2) [Peptide 1018-W11],0.62

# Same assay, conditions: Table 12; cells stimulated with 10 ng/ml LPS; LPS alone 1313 (HH2 derivatives), 1927 (1018 derivatives), 2455 (1002 and hybrid peptides) pg/ml
row,Substance,IL1β Production
1,1018-V11: single substituted 1018 peptide (VRLIVAVRIWVR-NH2) [Peptide 1018-V11],1240 pg/mL
2,1002-V8: single substituted 1002 peptide (VQRWLIVVRIRK-NH2) [Peptide 1002-V8],198 pg/mL
3,HH2-K10: single substituted HH2 peptide (VQLRIRVAVKRA-NH2),1878 pg/mL
4,HH2-L7: single substituted HH2 peptide (VQLRIRLAVIRA-NH2),1378 pg/mL
5,1018-I8: single substituted 1018 peptide (VRLIVAVIIWRR-NH2) [Peptide 1018-I8],1125 pg/mL
6,HH2-V12: single substituted HH2 peptide (VQLRIRVAVIRV-NH2),1119 pg/mL
7,1018-L9: single substituted 1018 peptide (VRLIVAVRLWRR-NH2) [Peptide 1018-L9],171 pg/mL
8,HH2-W9: single substituted HH2 peptide (VQLRIRVAWIRA-NH2),1050 pg/mL
9,1018-A1: single substituted 1018 peptide (ARLIVAVRIWRR-NH2) [Peptide 1018-A1],170 pg/mL
10,1002-A7: single substituted 1002 peptide (VQRWLIAWRIRK-NH2) [Peptide 1002-A7],132 pg/mL
11,1018-L10: single substituted 1018 peptide (VRLIVAVRILRR-NH2) [Peptide 1018-L10],127 pg/mL
12,1018-W11: single substituted 1018 peptide (VRLIVAVRIWWR-NH2) [Peptide 1018-W11],814 pg/mL
